# In PMC4055459, “Imatinib Treatment Causes Substantial Transcriptional Changes in Adult Schistosoma mansoni In Vitro Exhibiting Pleiotropic Effects” (PLoS Neglected Tropical Diseases, 2014):
# Target: T1, SmAbl2-TK (SmAbl2) (Schistosoma mansoni, UniProt D1H0Y8)
# T1 construct: gene abl2; capped cRNA injected into Xenopus laevis stage VI oocytes
# T1 sequence (D1H0Y8 283-538 limits assumed): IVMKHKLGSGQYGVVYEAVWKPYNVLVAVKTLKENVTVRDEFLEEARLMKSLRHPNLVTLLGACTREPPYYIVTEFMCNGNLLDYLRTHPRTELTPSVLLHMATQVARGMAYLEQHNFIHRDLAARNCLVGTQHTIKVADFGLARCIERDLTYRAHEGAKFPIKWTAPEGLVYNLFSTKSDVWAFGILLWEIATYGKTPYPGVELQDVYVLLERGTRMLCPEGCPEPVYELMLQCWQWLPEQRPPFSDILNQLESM
# Assay: germinal vesicle breakdown (GVBD) assay, cRNA-injected Xenopus oocytes
# Type: cell-based
# Conditions: remaining GVBD-inducing activity; ND96, 19 °C, 18 h after injection, pools of 10 oocytes
structure (smiles),measurement,value
CO[C@H]1[C@@H](OC)C[C@H](C)[C@@H](OC)C2=CC(=O)C=C(NC(=O)/C(C)=C/C=C\[C@H](OC)[C@@H](OC(N)=O)/C(C)=C/[C@@H]1C)C2=O [Herbimycin A],% GVBD at 10 μM,90%
